Reference: article PMC5847526, “Inhibition of neuronal FLT3 receptor tyrosine kinase alleviates peripheral neuropathic pain in mice” (Nature Communications, 2018)

Columns and labels:
FGFR1 kinase = FGFR1 kinase (Homo sapiens, UniProt P11362); test: biochemical; set-up: ExpresS Diversity kinase profile (Eurofins Cerep P10), per cent inhibition; conditions: read-out: Inhibition of reference binding (Table 4)
TRKA = biological target: T1, TRKA (Homo sapiens, UniProt P04629); test: biochemical; set-up: ExpresS Diversity kinase profile (Eurofins Cerep P10), per cent inhibition; conditions: read-out: Inhibition of reference binding (Table 4)
T1 construct: gene NTRK1

Abl kinase = biological target: T2, Abl kinase (Homo sapiens, UniProt P00519); test: biochemical; set-up: ExpresS Diversity kinase profile (Eurofins Cerep P10), per cent inhibition; conditions: read-out: Inhibition of reference binding (Table 4)
T2 construct: gene ABL1

Akt1/PKBα = Akt1/PKBα (Homo sapiens, UniProt P31749); test: biochemical; set-up: ExpresS Diversity kinase profile (Eurofins Cerep P10), per cent inhibition; conditions: read-out: Inhibition of reference binding (Table 4)
PDGFRβ = biological target: T3, PDGFRβ (Homo sapiens, UniProt P09619); test: biochemical; set-up: ExpresS Diversity kinase profile (Eurofins Cerep P10), per cent inhibition; conditions: read-out: Inhibition of reference binding (Table 4)
T3 construct: gene PDGFRB

PDK1 = biological target: T4, PDK1 (Homo sapiens, UniProt O15530); test: biochemical; set-up: ExpresS Diversity kinase profile (Eurofins Cerep P10), per cent inhibition; conditions: read-out: Inhibition of reference binding (Table 4)
T4 construct: gene PDPK1

PDGFRα = biological target: T5, PDGFRα (Homo sapiens, UniProt P16234); test: biochemical; set-up: ExpresS Diversity kinase profile (Eurofins Cerep P10), per cent inhibition; conditions: read-out: Inhibition of reference binding (Table 4)
T5 construct: gene PDGFRA

JNK1 = biological target: T6, JNK1 (Homo sapiens, UniProt P45983); test: biochemical; set-up: ExpresS Diversity kinase profile (Eurofins Cerep P10), per cent inhibition; conditions: read-out: Inhibition of reference binding (Table 4)
T6 construct: gene MAPK8

FGFR2 kinase = FGFR2 kinase (Homo sapiens, UniProt P21802); test: biochemical; set-up: ExpresS Diversity kinase profile (Eurofins Cerep P10), per cent inhibition; conditions: read-out: Inhibition of reference binding (Table 4)
MAPKAPK2 = MAPKAPK2 (Homo sapiens, UniProt P49137); test: biochemical; set-up: ExpresS Diversity kinase profile (Eurofins Cerep P10), per cent inhibition; conditions: read-out: Inhibition of reference binding (Table 4)
NEK2 = NEK2 (Homo sapiens, UniProt P51955); test: biochemical; set-up: ExpresS Diversity kinase profile (Eurofins Cerep P10), per cent inhibition; conditions: read-out: Inhibition of reference binding (Table 4)
Lck kinase = Lck kinase (Homo sapiens, UniProt P06239); test: biochemical; set-up: ExpresS Diversity kinase profile (Eurofins Cerep P10), per cent inhibition; conditions: read-out: Inhibition of reference binding (Table 4)
PRLR-JAK2 = PRLR-JAK2 (Homo sapiens, UniProt P16471); test: cell-based; set-up: PathHunter eXpress functional assay (DiscoverX tkMAX), inhibition of reference ligand response; conditions: read-out: % Inhibition of reference binding (Table 3)
TrkC-P75 = biological target: T7, TrkC-P75 (Homo sapiens, UniProt Q16288); test: cell-based; set-up: PathHunter eXpress functional assay (DiscoverX tkMAX), inhibition of reference ligand response; conditions: read-out: % Inhibition of reference binding (Table 3)
T7 construct: gene NTRK3

Lck kinase, sequence (P06239 whole entry): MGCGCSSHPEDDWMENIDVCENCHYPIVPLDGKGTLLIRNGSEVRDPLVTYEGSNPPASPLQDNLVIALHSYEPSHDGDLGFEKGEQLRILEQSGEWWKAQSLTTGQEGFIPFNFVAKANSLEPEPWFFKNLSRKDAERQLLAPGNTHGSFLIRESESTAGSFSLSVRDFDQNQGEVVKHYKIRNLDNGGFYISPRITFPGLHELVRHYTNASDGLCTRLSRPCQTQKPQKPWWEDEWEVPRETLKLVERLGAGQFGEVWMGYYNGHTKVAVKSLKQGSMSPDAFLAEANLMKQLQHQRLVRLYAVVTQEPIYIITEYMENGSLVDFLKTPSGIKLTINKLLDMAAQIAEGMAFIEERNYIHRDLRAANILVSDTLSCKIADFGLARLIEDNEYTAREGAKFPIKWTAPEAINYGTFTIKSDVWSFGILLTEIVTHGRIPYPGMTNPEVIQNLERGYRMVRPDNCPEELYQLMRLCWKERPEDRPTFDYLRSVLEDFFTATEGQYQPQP
FGFR2 kinase, sequence (P21802 whole entry): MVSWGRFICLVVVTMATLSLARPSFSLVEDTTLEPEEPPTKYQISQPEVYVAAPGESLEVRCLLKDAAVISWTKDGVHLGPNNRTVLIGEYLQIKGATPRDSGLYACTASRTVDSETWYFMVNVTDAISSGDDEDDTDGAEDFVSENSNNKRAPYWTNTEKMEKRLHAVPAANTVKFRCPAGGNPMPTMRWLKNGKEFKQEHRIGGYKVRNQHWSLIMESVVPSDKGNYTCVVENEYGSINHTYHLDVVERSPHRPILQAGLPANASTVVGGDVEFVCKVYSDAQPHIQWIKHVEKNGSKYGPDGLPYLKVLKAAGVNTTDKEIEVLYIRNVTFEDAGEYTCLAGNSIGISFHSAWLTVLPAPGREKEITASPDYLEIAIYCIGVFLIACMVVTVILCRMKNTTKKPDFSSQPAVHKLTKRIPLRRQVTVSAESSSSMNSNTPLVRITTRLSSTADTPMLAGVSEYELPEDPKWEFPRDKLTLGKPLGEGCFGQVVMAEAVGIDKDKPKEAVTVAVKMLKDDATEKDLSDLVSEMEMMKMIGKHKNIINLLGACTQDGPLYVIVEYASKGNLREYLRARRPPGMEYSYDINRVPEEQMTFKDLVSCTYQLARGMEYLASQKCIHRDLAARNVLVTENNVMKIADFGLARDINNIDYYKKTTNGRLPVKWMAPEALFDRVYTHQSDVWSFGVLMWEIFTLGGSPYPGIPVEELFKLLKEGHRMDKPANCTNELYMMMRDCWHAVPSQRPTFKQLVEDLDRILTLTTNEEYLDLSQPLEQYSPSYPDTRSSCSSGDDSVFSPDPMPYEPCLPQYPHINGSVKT
T1 sequence (P04629 whole entry): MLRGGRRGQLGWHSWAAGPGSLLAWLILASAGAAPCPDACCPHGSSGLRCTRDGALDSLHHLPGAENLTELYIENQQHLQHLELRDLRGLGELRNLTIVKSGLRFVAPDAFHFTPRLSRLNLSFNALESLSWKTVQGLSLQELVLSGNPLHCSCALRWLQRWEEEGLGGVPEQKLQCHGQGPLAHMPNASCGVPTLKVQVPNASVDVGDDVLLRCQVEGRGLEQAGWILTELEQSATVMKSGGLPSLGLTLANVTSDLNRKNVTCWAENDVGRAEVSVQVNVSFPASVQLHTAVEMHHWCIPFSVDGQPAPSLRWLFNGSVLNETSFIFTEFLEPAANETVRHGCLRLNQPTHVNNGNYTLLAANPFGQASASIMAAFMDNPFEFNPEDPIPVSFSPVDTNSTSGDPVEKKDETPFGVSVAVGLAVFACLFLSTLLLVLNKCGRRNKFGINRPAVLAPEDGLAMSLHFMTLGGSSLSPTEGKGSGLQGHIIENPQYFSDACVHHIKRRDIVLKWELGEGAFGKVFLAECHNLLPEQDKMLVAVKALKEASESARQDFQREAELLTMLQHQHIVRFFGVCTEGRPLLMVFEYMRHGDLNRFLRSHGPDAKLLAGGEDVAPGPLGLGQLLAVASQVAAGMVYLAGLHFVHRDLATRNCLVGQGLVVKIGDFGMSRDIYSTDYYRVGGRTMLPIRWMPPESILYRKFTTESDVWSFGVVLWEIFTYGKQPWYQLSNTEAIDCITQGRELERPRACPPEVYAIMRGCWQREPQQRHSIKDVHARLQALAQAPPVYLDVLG
NEK2, sequence (P51955 whole entry): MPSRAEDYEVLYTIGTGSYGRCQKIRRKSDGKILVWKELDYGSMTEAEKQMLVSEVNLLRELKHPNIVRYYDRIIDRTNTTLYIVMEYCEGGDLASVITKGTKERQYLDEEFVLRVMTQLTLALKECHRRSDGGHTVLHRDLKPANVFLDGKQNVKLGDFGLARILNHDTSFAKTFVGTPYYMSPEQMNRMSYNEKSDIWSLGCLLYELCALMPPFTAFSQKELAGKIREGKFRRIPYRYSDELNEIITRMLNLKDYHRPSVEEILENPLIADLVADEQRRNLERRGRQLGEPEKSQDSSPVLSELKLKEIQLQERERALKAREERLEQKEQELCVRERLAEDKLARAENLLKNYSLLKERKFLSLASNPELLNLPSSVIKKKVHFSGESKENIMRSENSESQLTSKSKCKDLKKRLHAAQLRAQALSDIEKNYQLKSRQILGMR
Akt1/PKBα, sequence (P31749 whole entry): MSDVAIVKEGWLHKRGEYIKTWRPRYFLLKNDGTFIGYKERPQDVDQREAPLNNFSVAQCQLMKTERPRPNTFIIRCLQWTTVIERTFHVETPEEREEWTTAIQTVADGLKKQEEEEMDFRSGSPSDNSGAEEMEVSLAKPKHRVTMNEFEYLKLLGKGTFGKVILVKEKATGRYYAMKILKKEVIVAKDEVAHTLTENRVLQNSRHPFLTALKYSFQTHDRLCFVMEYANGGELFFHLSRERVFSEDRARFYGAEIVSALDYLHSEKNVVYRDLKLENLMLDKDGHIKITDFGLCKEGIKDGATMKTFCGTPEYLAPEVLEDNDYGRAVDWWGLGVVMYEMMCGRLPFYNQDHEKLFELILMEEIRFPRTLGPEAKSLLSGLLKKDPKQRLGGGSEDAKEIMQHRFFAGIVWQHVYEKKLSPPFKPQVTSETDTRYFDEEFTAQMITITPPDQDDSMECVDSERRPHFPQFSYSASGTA
T6 sequence (P45983 whole entry): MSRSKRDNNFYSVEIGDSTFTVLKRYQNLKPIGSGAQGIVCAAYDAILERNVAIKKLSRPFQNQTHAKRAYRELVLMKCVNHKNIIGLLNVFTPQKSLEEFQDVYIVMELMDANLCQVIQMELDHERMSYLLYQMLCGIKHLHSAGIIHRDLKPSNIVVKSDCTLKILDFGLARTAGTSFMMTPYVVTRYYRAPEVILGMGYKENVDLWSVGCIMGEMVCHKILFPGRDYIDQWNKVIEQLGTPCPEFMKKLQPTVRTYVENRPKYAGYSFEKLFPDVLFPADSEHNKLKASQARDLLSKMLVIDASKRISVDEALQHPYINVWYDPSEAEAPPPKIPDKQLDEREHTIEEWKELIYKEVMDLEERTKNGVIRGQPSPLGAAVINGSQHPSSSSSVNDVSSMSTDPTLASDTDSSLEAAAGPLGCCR
T5 sequence (P16234 whole entry): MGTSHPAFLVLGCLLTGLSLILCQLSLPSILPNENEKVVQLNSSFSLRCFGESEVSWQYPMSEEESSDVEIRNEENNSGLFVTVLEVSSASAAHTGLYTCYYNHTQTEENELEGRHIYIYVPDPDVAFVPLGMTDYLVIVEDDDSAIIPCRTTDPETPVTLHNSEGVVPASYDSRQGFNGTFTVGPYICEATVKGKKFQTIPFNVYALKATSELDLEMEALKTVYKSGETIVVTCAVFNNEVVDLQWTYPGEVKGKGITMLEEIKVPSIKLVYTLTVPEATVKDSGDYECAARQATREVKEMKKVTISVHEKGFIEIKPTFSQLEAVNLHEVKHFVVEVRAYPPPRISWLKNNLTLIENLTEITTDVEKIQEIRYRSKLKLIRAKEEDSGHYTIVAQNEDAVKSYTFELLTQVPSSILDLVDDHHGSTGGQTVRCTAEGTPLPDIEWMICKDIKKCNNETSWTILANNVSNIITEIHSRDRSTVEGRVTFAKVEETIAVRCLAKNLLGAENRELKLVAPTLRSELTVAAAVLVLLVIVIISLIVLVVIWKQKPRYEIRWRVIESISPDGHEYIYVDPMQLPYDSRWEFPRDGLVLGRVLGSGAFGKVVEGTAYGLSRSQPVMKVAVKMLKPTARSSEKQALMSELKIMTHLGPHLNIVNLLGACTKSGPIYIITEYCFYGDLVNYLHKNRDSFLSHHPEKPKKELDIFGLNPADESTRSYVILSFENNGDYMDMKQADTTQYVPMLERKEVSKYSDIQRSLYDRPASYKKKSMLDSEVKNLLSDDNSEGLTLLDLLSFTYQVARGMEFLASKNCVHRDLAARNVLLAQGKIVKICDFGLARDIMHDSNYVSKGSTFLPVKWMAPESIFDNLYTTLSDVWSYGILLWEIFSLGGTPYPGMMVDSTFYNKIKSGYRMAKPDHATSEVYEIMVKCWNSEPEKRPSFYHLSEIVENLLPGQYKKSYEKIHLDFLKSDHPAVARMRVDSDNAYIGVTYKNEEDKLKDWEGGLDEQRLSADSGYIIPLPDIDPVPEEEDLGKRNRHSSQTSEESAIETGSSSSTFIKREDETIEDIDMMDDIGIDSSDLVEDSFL
MAPKAPK2, sequence (P49137 whole entry): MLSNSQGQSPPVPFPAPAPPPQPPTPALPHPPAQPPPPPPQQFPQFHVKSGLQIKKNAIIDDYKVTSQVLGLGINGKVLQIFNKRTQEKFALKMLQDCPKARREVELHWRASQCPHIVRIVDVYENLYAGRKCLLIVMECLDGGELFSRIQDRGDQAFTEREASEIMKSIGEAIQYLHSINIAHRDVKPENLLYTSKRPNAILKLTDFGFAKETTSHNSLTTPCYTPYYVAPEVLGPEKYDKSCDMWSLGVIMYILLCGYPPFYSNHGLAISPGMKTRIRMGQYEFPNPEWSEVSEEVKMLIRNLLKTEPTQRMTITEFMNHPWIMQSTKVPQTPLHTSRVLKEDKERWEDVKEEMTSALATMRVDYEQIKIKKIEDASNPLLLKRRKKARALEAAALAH

inhibition at 10 µM (FGFR1 kinase): -7%
inhibition at 10 µM (TRKA): 0%
inhibition at 10 µM (Abl kinase): 16%
inhibition at 10 µM (Akt1/PKBα): -13%
inhibition at 10 µM (PDGFRβ): -2%
inhibition at 10 µM (PDK1): 3%
inhibition at 10 µM (PDGFRα): 40%
inhibition at 10 µM (JNK1): 32%
inhibition at 10 µM (FGFR2 kinase): -2%
inhibition at 10 µM (MAPKAPK2): 6%
inhibition at 10 µM (NEK2): -23%
inhibition at 10 µM (Lck kinase): -14%
inhibition at 10 µM (PRLR-JAK2): 1.9%
inhibition at 10 µM (TrkC-P75): 0.6%
SMILES: O=C(Nc1cc(Cl)ccc1O)c1cccc(S(=O)(=O)N2CCCCC2)c1 [compound 66, BDT001]
